Measurements: paper PMC10281575, “PfCRT mutations conferring piperaquine resistance in falciparum malaria shape the kinetics of quinoline drug binding and transport” (PLOS Pathogens, 2023)
Substitutions are numbered along the chain they refer to. “Also recorded” adds a separate entry of the source.

Tests used:
PfCRT^Dd2_H97Y = biological target: T1, PfCRT^Dd2_H97Y (Plasmodium falciparum, UniProt Q8IBZ9, A220S/H97Y/I356T/K76T/M74I/N326S/N75E/Q271E/R371I); assay: Verapamil inhibition of PfCRT-mediated CQ and PPQ transport in oocytes, PfCRT^Dd2_H97Y; type: cell-based; conditions: 100 μM verapamil, 50 μM CQ or PPQ
T1 construct: expressed in transfected cells; host or cells: Xenopus laevis oocytes injected with in vitro transcribed RNA (pSP64T)
T1 sequence (Q8IBZ9 1-424 M74I/N75E/K76T/H97Y/A220S/Q271E/N326S/I356T/R371I): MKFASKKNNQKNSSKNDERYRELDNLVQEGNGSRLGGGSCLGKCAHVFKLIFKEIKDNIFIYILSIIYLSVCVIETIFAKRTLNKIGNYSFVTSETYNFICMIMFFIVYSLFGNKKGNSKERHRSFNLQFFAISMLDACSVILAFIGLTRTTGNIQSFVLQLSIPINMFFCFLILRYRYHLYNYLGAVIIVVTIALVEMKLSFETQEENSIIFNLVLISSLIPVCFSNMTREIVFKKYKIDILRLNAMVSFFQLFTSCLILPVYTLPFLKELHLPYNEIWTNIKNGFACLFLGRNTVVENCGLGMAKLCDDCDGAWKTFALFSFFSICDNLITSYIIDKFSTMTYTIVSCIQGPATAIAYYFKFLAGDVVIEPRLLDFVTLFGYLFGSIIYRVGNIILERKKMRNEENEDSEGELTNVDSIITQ
Procedure: (§1) In all cases, the PfCRT-mediated CQ and PPQ transport was inhibited in the presence of 100 μM verapamil (S3 Fig).
(§2) Drug transport assays were performed as previously described. Briefly, measurements of radiolabeled drug uptake were made over 1 h, unless otherwise specified. […] Where specified, one or more unlabeled drugs were also present at the indicated concentrations. The direction of drug transport in the assays is from the extracellular medium (pH 6) into the oocyte cytosol (pH 7.2), which corresponds to the efflux of CQ or PPQ from the acidic digestive vacuole (pH 5.2) into the parasite cytosol (pH 7.2). The uptake assays were terminated by removing the oocytes from the reaction medium and washing them three times with 2 mL of ice-cold ND96 buffer. Each oocyte was transferred to a separate scintillation vial and lysed by the addition of 200 μL of a 5% SDS solution. The radioactivity in the sample was measured using a liquid scintillation analyser Tri-Carb 4910 TR (PerkinElmer). Water-injected oocytes were analyzed in parallel as a negative control. The buffer from each condition was measured in duplicate in parallel to each experiment to transform counts per minute into pmol of drug. Drug uptake attributable to PfCRT was determined by subtracting the background uptake from water-injected oocytes from that of PfCRT-expressing oocytes. In all cases, at least three independent experiments were performed on oocytes from different frogs, and for each condition in an experiment, measurements were made from 10 oocytes per treatment.
(§3) Supplementary file ppat.1011436.s006.tif: S3 Fig Verapamil inhibits PfCRT-mediated transport of CQ and PPQ. […] Left panels, data is shown as individual biological replicates (coloured symbols) overlaid onto bars representing the Mean ± S.E.M. (error bars). A one-tailed Student’s t-test was performed between untreated (no VP) and treated (+ 100 μM VP) samples, and the obtained p values are shown. Right panels, the uptake in VP-treated samples was divided by the uptake in their corresponding untreated pairs and subtracted from 100% to get the percentage of uptake inhibition mediated by the presence of 100 μM verapamil in the extracellular medium. Error bars are S.E. (TIF) Click here for additional data file.

PfCRT^Dd2_F145I = biological target: T2, PfCRT^Dd2_F145I (Plasmodium falciparum, UniProt Q8IBZ9, A220S/F145I/I356T/K76T/M74I/N326S/N75E/Q271E/R371I); assay: Verapamil inhibition of PfCRT-mediated CQ and PPQ transport in oocytes, PfCRT^Dd2_F145I; type: cell-based; conditions: 100 μM verapamil, 50 μM CQ or PPQ
T2 construct: expressed in transfected cells; host or cells: Xenopus laevis oocytes injected with in vitro transcribed RNA (pSP64T)
T2 sequence (Q8IBZ9 1-424 M74I/N75E/K76T/F145I/A220S/Q271E/N326S/I356T/R371I): T1 sequence (Q8IBZ9 1-424 M74I/N75E/K76T/H97Y/A220S/Q271E/N326S/I356T/R371I) with Y97H, F145I
Procedure: as §1
as §2, with “In all cases, at least three independent experiments were performed on oocytes from different frogs, and for each condition in an experiment, measurements were made from 10 oocytes per treatment.” left out

PfCRT^Dd2_M343L = biological target: T3, PfCRT^Dd2_M343L (Plasmodium falciparum, UniProt Q8IBZ9, A220S/I356T/K76T/M343L/M74I/N326S/N75E/Q271E/R371I); assay: Verapamil inhibition of PfCRT-mediated CQ and PPQ transport in oocytes, PfCRT^Dd2_M343L; type: cell-based; conditions: 100 μM verapamil, 50 μM CQ or PPQ
T3 construct: expressed in transfected cells; host or cells: Xenopus laevis oocytes injected with in vitro transcribed RNA (pSP64T)
T3 sequence (Q8IBZ9 1-424 M74I/N75E/K76T/A220S/Q271E/N326S/M343L/I356T/R371I): T1 sequence (Q8IBZ9 1-424 M74I/N75E/K76T/H97Y/A220S/Q271E/N326S/I356T/R371I) with Y97H, M343L
Procedure: as §1, §2, §3

PfCRT^Dd2_G353V = biological target: T4, PfCRT^Dd2_G353V (Plasmodium falciparum, UniProt Q8IBZ9, A220S/G353V/I356T/K76T/M74I/N326S/N75E/Q271E/R371I); assay: Verapamil inhibition of PfCRT-mediated CQ and PPQ transport in oocytes, PfCRT^Dd2_G353V; type: cell-based; conditions: 100 μM verapamil, 50 μM CQ or PPQ
T4 construct: expressed in transfected cells; host or cells: Xenopus laevis oocytes injected with in vitro transcribed RNA (pSP64T)
T4 sequence (Q8IBZ9 1-424 M74I/N75E/K76T/A220S/Q271E/N326S/G353V/I356T/R371I): T1 sequence (Q8IBZ9 1-424 M74I/N75E/K76T/H97Y/A220S/Q271E/N326S/I356T/R371I) with Y97H, G353V
Procedure: as §1, §2, §3

PfCRT^Dd2 [1] = biological target: T5, PfCRT^Dd2 (Plasmodium falciparum, UniProt Q8IBZ9, A220S/I356T/K76T/M74I/N326S/N75E/Q271E/R371I); assay: Verapamil inhibition of PfCRT-mediated CQ and PPQ transport in oocytes, PfCRT^Dd2; type: cell-based; parameters: expressed in transfected cells; host or cells: Xenopus laevis oocytes injected with in vitro transcribed RNA (pSP64T); conditions: 100 μM verapamil, 50 μM CQ or PPQ
T5 sequence (Q8IBZ9 1-424 M74I/N75E/K76T/A220S/Q271E/N326S/I356T/R371I): T1 sequence (Q8IBZ9 1-424 M74I/N75E/K76T/H97Y/A220S/Q271E/N326S/I356T/R371I) with Y97H
Procedure: as §1, §2, §3

PfCRT^Dd2 [2] = biological target: T5, PfCRT^Dd2; parameters: expressed in transfected cells; host or cells: Xenopus laevis oocytes injected with in vitro transcribed RNA (pSP64T); conditions: cited from earlier work

| Compound | PfCRT-mediated CQ and PPQ transport in the presence of verapamil (PfCRT^Dd2_H97Y) | PfCRT-mediated CQ and PPQ transport in the presence of verapamil (PfCRT^Dd2_F145I) | PfCRT-mediated CQ and PPQ transport in the presence of verapamil (PfCRT^Dd2_M343L) | PfCRT-mediated CQ and PPQ transport in the presence of verapamil (PfCRT^Dd2_G353V) | PfCRT-mediated CQ and PPQ transport in the presence of verapamil (PfCRT^Dd2 [1]) | inhibition model versus CQ on PfCRT (PfCRT^Dd2 [2]) |
| --- | --- | --- | --- | --- | --- | --- |
| COc1ccc(CCN(C)CCCC(C#N)(c2ccc(OC)c(OC)c2)C(C)C)cc1OC (stereo not shown) [verapamil] | inhibited | inhibited | inhibited | inhibited | inhibited | partial mixed-type inhibitor; also recorded: mixed-type inhibition |
| C=C[C@H]1C[N@@]2CC[C@H]1C[C@H]2[C@H](O)c1ccnc2ccc(OC)cc12 [quinine] | – | – | – | – | – | partial mixed-type inhibition |
